US10421973B2, “Chemically inducible cucumber mosaic virus protein expression system” (THE REGENTS OF THE UNIVERSITY OF CALIFORNIA, priority 2006, dated 2019)
Where “and” joins values, the source holds several entries; their conditions need not be identical. Equal values may be shown once. Read-outs that look alike come from different tables or passages of the source.

Experiments:
[1] = test system: transgenic plant cell cultures; assay: Effect of stabilizing agents and protease inhibitors on rAAT production in transgenic plant cell cultures; type: cell-based, Nicotiana benthamiana; conditions: transgenic plant cell cultures; data not shown
Method: The effect of stabilizing agents (bacitracin, PVP, BSA, Pluronic F-68, and mannitol) and protease inhibitors (2-mercaptoethylamine-HCl, AEBSF, benzamidine-HCl and EDTA) on the rAAT production in transgenic plant cell cultures was also evaluated.

[2] = test system: XVE inducible cell cultures; assay: Effect of inducer concentration on rAAT production, XVE inducible cell cultures; type: cell-based, Nicotiana benthamiana
Method: (§1) The inducer, 17-beta-estradiol, dissolved in DMSO, was added to cultures of XVE and CMViva transgenic cell lines at a specific time after inoculation to start induction. The final concentration of DMSO was not higher than 0.3%.
(§2) For inducible systems, the correct inducer concentration and timing of application are critical to maximize recombinant protein expression. Two inducible expression systems were evaluated for rAAT protein production. The concentration of inducer (COI) required for inducing maximum rAAT production and the close-response of inducible plant cell cultures were determined. Inducer was added to the XVE and CMViva cell suspensions 10 days after inoculation (100 mL cell culture in a 250 mL Erlenmeyer flask, 140 rpm and 25° C. under ambient light) to a final concentration of 0, 0.1, 0.5, 1, 2.5, 5, 10, 25, 50 or 100 μM. Samples were harvested 8 days after induction and total and functional extracellular rAAT were determined by ELISA (FIG. 8). In the absence of inducer, rAAT was not detected in XVE or CMViva cultures. There was a dose-dependent response in rAAT expression in XVE and CMViva cell cultures with added inducer, and both inducible systems allowed regulation of rAAT expression at inducer concentrations between 0.1 and 10 μM. Above approximately 10 μM estradiol, rAAT production leveled off in both XVE and CMViva systems. […]

[3] = test system: viral amplicon plant cell cultures; conditions: cited from earlier work
[4] = test system: XVE system; conditions: cited from earlier work
[5] = test system: CMViva inducible cell cultures; assay: Effect of inducer concentration on rAAT production, CMViva inducible cell cultures; type: cell-based, Nicotiana benthamiana
Method: as §1
For inducible systems, the correct inducer concentration and timing of application are critical to maximize recombinant protein expression. Two inducible expression systems were evaluated for rAAT protein production. The concentration of inducer (COI) required for inducing maximum rAAT production and the close-response of inducible plant cell cultures were determined. Inducer was added to the XVE and CMViva cell suspensions 10 days after inoculation (100 mL cell culture in a 250 mL Erlenmeyer flask, 140 rpm and 25° C. under ambient light) to a final concentration of 0, 0.1, 0.5, 1, 2.5, 5, 10, 25, 50 or 100 μM. Samples were harvested 8 days after induction and total and functional extracellular rAAT were determined by ELISA (FIG. 8). In the absence of inducer, rAAT was not detected in XVE or CMViva cultures. There was a dose-dependent response in rAAT expression in XVE and CMViva cell cultures with added inducer, and both inducible systems allowed regulation of rAAT expression at inducer concentrations between 0.1 and 10 μM. Above approximately 10 μM estradiol, rAAT production leveled off in both XVE and CMViva systems. The CMViva system first responded at 0.1 μM while XVE required 2.5 μM. Higher extracellular rAAT productivity was produced in CMViva at a relatively low inducer concentration (0.5 μM) compared with that in XVE system (5 μM) and CMViva produced more functional rAAT at all inducer concentrations.

[6] = test system: N. benthamiana cultures; assay: Effects of estradiol on N. benthamiana cultures (toxicity, growth); type: cell-based, Nicotiana benthamiana; conditions: at up to 100 μM
Method: as §2, with “systems. The CMViva system first responded at 0.1 μM while XVE required 2.5 μM.” for “systems.”

[7] = test system: proteases in the cell cultured medium; assay: Effect of protease inhibitors and additives on human AAT degradation in cell-free CMViva conditioned medium; type: biochemical, Nicotiana benthamiana; conditions: cell-free conditioned medium; data not shown
Method: (§3) For the investigation of human AAT stability in plant cell cultures, human AAT was added to the cell-free conditioned medium to a final concentration of 2 mg/L and distributed into 6-well-plates. The cell-free conditioned medium was prepared by centrifuging and filtering (through a 0.22 μm filter) the plant cells from 7 day old CMViva cell cultures (pH 5.1). Various protease inhibitors including 2-mercaptoethylamine-HCl (aminopeptidase inhibitor), AEBSF (serine and cysteine proteases inhibitor), benzamidine-HCl (serine protease inhibitor), and EDTA (a metal ion chelator and metalloproteinase inhibitor) were added to the conditioned medium to a final concentration of 10 mM to assess their ability to retard the degradation of human AAT. In another treatment, the conditioned medium was also heated (in boiling water for 30 minutes) or the medium pH was adjusted (from original pH 5.1 to 6.4˜6.6) prior to the addition of human AAT to investigate the human AAT stability. The 6-well-plates containing human AAT in various conditioned medium (4 mL/well) were incubated on an orbital shaker at 140 rpm and 25[…] under ambient light. Samples were taken daily and stored at −80° for further ELISA, western blotting and band shift analysis.

[8] = Method: as §3
[9] = test system: porcine pancreatic elastase (PPE); assay: Induction method study, functional rAAT ELISA in intact or detached N. benthamiana leaves (CMViva + p19); type: biochemical
Method: (§4) Non-transgenic/wildtype N. benthamiana seedlings were grown from seed in soil-filled 10-cm pots. Seedlings were transplanted to individual 10-cm pots until plants were 10 to 15 cm in height, at which time plants were ready for infiltration. All plants were grown in a greenhouse with a 16-hour photoperiod and a temperature range of 18° C. (nighttime low) to 30° C. (daytime high). To prepare for evaluation of protein expression in detached leaves, plant leaves were cut at the petiole and stored dry in unsealed plastic bags for one hour before infiltration to simulate a situation where plants would be harvested from a field and transported to a facility for infiltration.
(§5) A. tumefaciens cells containing the appropriate plasmids were grown for 24 hours in 2 mL of Luria-Bertani (LB) broth containing appropriate selection antibiotics. Approximately 0.5 mL was then transferred to 25 mL of LB broth supplemented with 10 μL of 100 mM acetosyringone (3′, 5′-dimethoxy-4′-hydroxyacetophenone) (Aldrich Chemicals, Milwaukee, Wis.) and 0.5 ml of 1 M 2-(4-morpholino) ethanesulfonic acid (MES) buffer (pH 5.6), and grown overnight at 28° C. with shaking until the cell density (optical density, OD600) reached 1.0 absorbance units. Cells were harvested by centrifugation at 2600 g, resuspended in 10 mL of sterile de-ionized water, and the cell density was adjusted to 1.0 absorbance units. Five milliliters of the A. tumefaciens cell suspension for CMViva was mixed with 5 mL of A. tumefaciens cells containing the p35S:p19 plasmid, and then supplemented with magnesium chloride to reach a final concentration of 10 mM and acetosyringone to 150 µM, and incubated at room temperature for five hours. Bacterial suspensions were then pressure infiltrated onto the abaxial side of either intact or detached N. benthamiana leaves using a 3-mL sterile syringe without a needle at three to four points to sufficiently cover the entire leaf (approximately 1 mL of bacterial suspension per 0.5 g fresh weight of tissue). No A. tumefaciens solution was applied to plants selected as healthy control plants.
(§6) Intact plants that had been infiltrated were grown in the greenhouse for the duration of the experiment. Leaves that had been detached were stored in a humidity chamber following infiltration to maintain the health of the plant material. The humidity chamber was prepared by soaking 400 g of Perlite soil additive (E.B. Stone) in 1.5 L of de-ionized water. Excess water was decanted and the saturated Perlite was packed to form a 3-cm thick bed on the bottom of an 11.4 L rectangular Tupperware container. Plant leaves were then placed 7 cm above the Perlite bed on top of racks, and the chamber was then sealed and placed in the dark at 21° C. The humidity chamber was prepared five hours before infiltration to ensure a humid environment upon introduction of the plant leaves.
(§7) Twelve hours after infiltration, an induction solution composed of 50 μM 17-β-estradiol (Sigma Inc., St. Louis, Mo.) in 0.05% Tween 20 was applied to all infiltrated N. benthamiana leaves using either cotton tipped applicators to both sides of the leaves or a 3-mL sterile syringe without a needle pressure injected onto the abaxial side of the leaves. To evaluate the effect of multiple inducer applications, the induction solution was applied to half of the total number of infiltrated leaves in the same manner (directly after sampling) at 2-day (48±1 h) increments after the initial induction. No inducer solution was applied at any time to the healthy control plants.
(§8) Plant leaves were sampled on the infiltrated/induced areas 2 days (48±1 h) post-induction (60±1 h post-infiltration) by collecting two 7-mm diameter discs at various locations on each leaf and combining the discs to approximate an average leaf sample. Three leaves from different plants were sampled for analysis of intact plant leaves and four leaves were used for analysis of detached plant leaves. […]

[10] = test system: N. benthamiana leaves; assay: Induction method study, total rAAT ELISA in intact or detached N. benthamiana leaves (CMViva + p19); type: in vivo, Nicotiana benthamiana
Method: as §4, §5, §6, §7, §8

[11] = inducer added 10 days after inoculation, sampled 8 days after induction
[12] = 5 day incubation, fresh sterile KCMS medium, pH 5.8
[13] = detached leaves, single pressure injection
[14] = intact leaves, single pressure injection
[15] = intact leaves, single topical application, four days after induction

## Cl.N=C(N)c1ccccc1 [benzamidine-HCl]
[1]
  effect on total and functional rAAT production: no significant improvement

## C[C@]12CC[C@@H]3c4ccc(O)cc4CC[C@H]3[C@@H]1CC[C@@H]2O [estradiol, 17-β-estradiol]
[2]; flask cultures
  inducer concentration giving higher extracellular rAAT productivity: 5 µM
[2]; [11]
  estradiol concentration at which the system first responded (detectable rAAT): 2.5 µM
[3]; viral amplicon plant cell cultures
  estradiol concentration giving GFP fluorescence: 10 nM
[3]; viral amplicon system in plant cell culture
  estradiol concentration at saturation of GFP fluorescence: 0.1 to 1 µM
[4]; plants, XVE system
  estradiol concentration giving detectable GFP transcripts: 8 nM
[4]; whole plants
  estradiol concentration at saturation of GFP transcripts: around 5 μM
[5]; flask cultures
  inducer concentration giving higher extracellular rAAT productivity: 0.5 µM
[5]; [11]
  estradiol concentration at which the system first responded (detectable rAAT): 0.1 µM
[5]; lowest concentration tested
  lowest estradiol concentration with detectable rAAT expression: 100 nM
[6]
  detrimental, toxic or growth-inhibiting effects on cultures: no obvious detrimental, toxic, or growth-inhibiting effects

## OC[C@@H](O)[C@@H](O)[C@H](O)[C@H](O)CO [mannitol]
[7]
  effect of medium additive on stabilizing functional human AAT: did not show significant effect
[1]
  effect on total and functional rAAT production: no significant improvement

## human AAT: commercially available human AAT (Calbiochem) used as standard and spiked into media
[8]; 5 day incubation, 7 day old cell-free CMViva culture medium, pH about 5.0
  decline of total human AAT: 60%
[8]; [12]
  decline of functional human AAT: ~50%
  decline of total human AAT: about 25%
[8]; 5 day period, CMViva culture medium adjusted to pH 6.4
  decline of total human AAT: about 25%
[8]; 11 day-old cell-free CMViva medium adjusted to pH 4-5
  functionality of human AAT: accelerates the loss of functionality
[8]; 11 day-old cell-free CMViva medium adjusted to pH 7-8
  functionality of human AAT: maintains the functionality
[8]; after 5 days, heated CMViva culture medium
  functional human AAT as % of the initial concentration: 70%
[8]; within 2 days, 7 day old cell-free CMViva culture medium, pH about 5.0
  functional human AAT level: negligible

## rAAT: recombinant α1-antitrypsin, a human blood protein, produced in N. benthamiana
[9]; detached leaves
  functional rAAT higher with single pressure injection than single topical application: 80%
  increase of maximum functional rAAT, inducer applied topically every two days: 1.8 fold
[9]; detached leaves, injection method, two days after induction
  maximum percentage of functional rAAT to total rAAT: 85-87%
[9]; detached leaves, multiple topical applications, four days post induction
  functional rAAT: 1.3±0.05 % of TSP
[9]; [13]
  functional rAAT: 1.3±0.06 % of TSP
[9]; detached leaves, single topical application, four days post induction
  functional rAAT: 0.71±0.04 % of TSP
[9]; detached leaves, topical application, two days after induction
  maximum percentage of functional rAAT to total rAAT: 55-65%
[9]; intact leaves
  increase of maximum functional rAAT, multiple pressure injections compared to single topical application: up to 3 fold
[9]; intact leaves, eighth day after induction, any of the treatments
  percentage of total rAAT that is functional: less than 15%
[9]; intact leaves, multiple pressure injections
  maximum functional rAAT: 2.4±0.09 % of TSP
[9]; intact leaves, multiple topical applications
  maximum functional rAAT: 1.6±0.08 % of TSP
[9]; intact leaves, pressure injection, two days after induction
  percentage of total rAAT that is functional: 83-90% and > 85%
[9]; [14]
  maximum functional rAAT: 1.8±0.09 % of TSP
[9]; [15]
  maximum functional rAAT: 0.80±0.04 % of TSP
[9]; intact leaves, six days after induction, single induction treatment
  functional rAAT still present as % of the maximum level: less than 40%
[9]; intact plants
  more functional rAAT, single pressure injection compared to single topical application: 125%
[9]; multiple topical applications, four days post induction
  functional rAAT in detached leaves less than in intact leaves: 0.3 % of TSP
[9]; single topical application, four days post induction
  functional rAAT in detached leaves less than in intact leaves: 0.09 % of TSP
[10]; detached leaves, multiple topical applications
  maximum total rAAT: 3.5±0.15 % of TSP
[10]; [13]
  total rAAT: 2.4±0.18 % of TSP
[10]; detached leaves, single topical application
  maximum total rAAT: 2.5±0.08 % of TSP
[10]; intact leaves, multiple pressure injections, 6 days after induction
  maximum total rAAT: 5.8±0.46 % of TSP
[10]; intact leaves, pressure injection
  increase of total rAAT, multiple compared to single treatment: 57%
[10]; [14]
  total rAAT: 3.7±0.31 % of TSP
[10]; [15]
  total rAAT: 1.4±0.17 % of TSP
[10]; intact leaves, single topical application, six days after induction
  maximum total rAAT: 1.9±0.15 % of TSP
[10]; intact leaves, topical application
  increase of total rAAT, multiple compared to single treatment: 120%
[10]; intact plants
  more total rAAT, single pressure injection compared to single topical application: 95%
[10]; single topical application
  maximum total rAAT in detached leaves above that in intact leaves: 0.6 % of TSP
